{"source": "ChEMBL document CHEMBL1150187", "about": "“Two new natural azafluorene alkaloids and a cytotoxic aporphine alkaloid from Polyalthia longifolia” (1990)", "format_in_all_cases": "functional", "key": {"[1]": {"test_system": "A549", "test": "Cytotoxicity against human A549 cells"}, "[2]": {"test_system": "P388", "test": "Cytotoxicity against mouse P388 cells"}, "[3]": {"test_system": "KB", "test": "Cytotoxicity against human KB cells"}, "[4]": {"test_system": "L1210", "test": "Cytotoxicity against mouse L1210 cells"}, "[5]": {"test_system": "HCT-8", "test": "Cytotoxicity against human HCT8 cells"}, "[6]": {"settings": "read-out: ED50 (the source's name)"}}, "note": "Activity calls are given as the source filed them. The calls are words filed in the database; no cut-off is given here.", "data": [{"smiles": "COc1cc2c(cc1OC)-c1nccc(C)c1C2=O", "values": [{"measurement": "Activity", "setting": "[1]", "value": "inactive"}, {"measurement": "Activity", "setting": "[2]", "value": "inactive"}, {"measurement": "Activity", "setting": "[3]", "value": "inactive"}, {"measurement": "Activity", "setting": "[4]", "value": "inactive"}, {"measurement": "Activity", "setting": "[5]", "value": "inactive"}]}, {"smiles": "O=C1c2ccccc2-c2c3c(cc4ccnc1c24)OCO3", "note": "[LIRIODENINE]", "values": [{"measurement": "EC50", "setting": "[1]; [6]", "value": 0.72, "unit": "µg/mL"}, {"measurement": "EC50", "setting": "[2]; [6]", "value": 0.57, "unit": "µg/mL"}, {"measurement": "EC50", "setting": "[3]; [6]", "value": 1, "unit": "µg/mL"}, {"measurement": "EC50", "setting": "[4]; [6]", "value": 2.33, "unit": "µg/mL"}, {"measurement": "EC50", "setting": "[5]; [6]", "value": 0.7, "unit": "µg/mL"}]}, {"smiles": "COc1cc2c(cc1O)C(=O)c1c(C)ccnc1-2", "values": [{"measurement": "Activity", "setting": "[1]", "value": "inactive"}, {"measurement": "Activity", "setting": "[2]", "value": "inactive"}, {"measurement": "Activity", "setting": "[3]", "value": "inactive"}, {"measurement": "Activity", "setting": "[4]", "value": "inactive"}, {"measurement": "Activity", "setting": "[5]", "value": "inactive"}]}, {"smiles": "COc1c(O)cc2c(c1OC)-c1nccc(C)c1C2=O", "values": [{"measurement": "Activity", "setting": "[1]", "value": "inactive"}, {"measurement": "Activity", "setting": "[2]", "value": "inactive"}, {"measurement": "Activity", "setting": "[3]", "value": "inactive"}, {"measurement": "Activity", "setting": "[4]", "value": "inactive"}, {"measurement": "Activity", "setting": "[5]", "value": "inactive"}]}, {"smiles": "O[C@H]1c2ccccc2-c2c3c(cc4c2[C@@H]1NCC4)OCO3", "values": [{"measurement": "Activity", "setting": "[1]", "value": "inactive"}, {"measurement": "Activity", "setting": "[2]", "value": "inactive"}, {"measurement": "Activity", "setting": "[3]", "value": "inactive"}, {"measurement": "Activity", "setting": "[4]", "value": "inactive"}, {"measurement": "Activity", "setting": "[5]", "value": "inactive"}]}, {"smiles": "C[N+]1([O-])CCc2cc3c(c4c2[C@H]1[C@@H](O)c1ccccc1-4)OCO3", "note": "(stereo not given in full)", "values": [{"measurement": "Activity", "setting": "[1]", "value": "inactive"}, {"measurement": "Activity", "setting": "[2]", "value": "inactive"}, {"measurement": "Activity", "setting": "[3]", "value": "inactive"}, {"measurement": "Activity", "setting": "[4]", "value": "inactive"}, {"measurement": "Activity", "setting": "[5]", "value": "inactive"}]}]}
